≈ marks a conversion by molar mass, not a printed value. Where “and” joins values, the source holds several entries; their conditions need not be identical. Equal values may be shown once. Read-outs that look alike come from different tables or passages of the source.
Tests used:
[1] = Safety of tumescent drug delivery: subcutaneous infiltration of 20 ml tumescent solutions; details: for ecchymosis / local tenderness upon palpation / stinging upon injection: subcutaneous TI, 20 ml, 6 of 6 subjects
Description: We studied 6 subjects over 6 days after subcutaneous infiltration of a 20 ml of tumescent solutions of acyclovir and 20 ml of tumescent gentamicin with 20 ml of subcutaneous normal saline and 20 ml of subcutaneous bacteriostatic saline as controls.

[2] = test system: Staphylococcus aureus (MRSA) ATCC 33592; assay: microbe, parasite or virus in culture; details: 24 h, read-out: MIC end point
Description: (§1) Following inoculation, survival of test microorganisms was determined.

[3] = test system: Staphylococcus aureus (MRSA) ATCC 33592; type: cell-based
Description: Determinations of MBC followed the method described in “Report on the Working Party on Antibiotic Sensitivity Testing of the British Society of Antimicrobial Chemotherapy: A Guide to Sensitivity Testing.”

[4] = test system: Staphylococcus aureus (MRSA) ATCC 33592; details: combined test product Lidocaine+Cefazolin
Description: as §1

[5] = mixed together in a saline solution for IV delivery; 8° C.; cited from earlier work
[6] = for adverse local or systemic effects after subcutaneous tumescent infiltration: dilute drug in TAD solution; for AUC / Cmax: Table 16B
Description: Five pharmacokinetic studies each involved one IVAD procedure and one or two TAD procedures or a concomitant TAD+IVAD procedure. […] The AUC∞ and Cmax with TAD and with IVAD were compared.
The protocol received institutional review board approval and written informed consent was obtained prior to each research procedure. We compared tumescent antibiotic delivery (TAD) and intravenous antibiotic delivery (IVAD) with respect to concentration-time profile, AUC∞, Cmax and T>MIC.
Only after a prospective patient had requested liposuction surgery was the person offered the opportunity to participate in this research. Volunteer subjects were offered liposuction at no cost.
Exclusion criteria were: current significant health problems, history or evidence of HIV or Hepatitis C infection and […] of drugs that block cytochrome P450 3A4 or 1A2 or impair hemostasis.
Each of the 5 studies consisted of one IV antibiotic delivery (IVAD) procedure and one or two TAD infiltration procedures. In individual subjects, procedures were performed at least one week apart.
Metronidazole for IV delivery is available as 500 mg in 100 ml.
The discomfort of tumescent infiltration was minimized by a sequential infiltration technique: first using a spinal needle to infiltrate a relatively small volume of TAD sufficient to provide minimal anesthesia to allow comfortable insertion of blunt-tipped 16 gauge tumescent infiltration cannulas that provide large volume infiltration. The spinal needle and blunt-tipped infiltration cannulas were inserted through the skin via 1 mm adits made by a 1 mm skin biopsy punch. All patients were fully awake and received no parenteral sedation.
Sample Collection: After […], only serum concentrations were measured. After TAD both serum and TISF concentrations were measured. IVAD was achieved via an antecubital vein. Serum samples were obtained via an indwelling IV catheter in the contralateral antecubital vein.
A two-syringe sampling technique first removed 2 mL of blood, which was discarded, and then 10 mL of blood was obtained in a second syringe for drug assay. After each blood sample the IV catheter was flushed with 2 ml of saline and then 0.5 mL of heparin (10 units/mL).
Sequential samples of tumescent adipose tissue (10 ml to 20 ml) were obtained by the hand-held syringe liposuction technique. Sampling began at time T0 immediately after completing TAD infiltration and continued every 1 to 2 hours until the subject experienced significant discomfort as the result of diminishing local anesthesia. Samples of the subcutaneous tissue aspirate were centrifuged. The supranatant fat was discarded.
Data Analysis: We recorded the effect of varying the mg dose and mg/L concentration of antibiotics within TAD solutions between procedures in individual subjects and between different subjects.
Linear regression analysis was used to determine the correlation (coefficient of determination R2) between the antibiotic concentration (mg/L) in a TAD solution and Cmax in the infranatant liposuctioned subcutaneous tissue TISF. After TAD and after IVAD, Cmax in serum was determined by inspection of the sequential assays. AUC∞ was determined by the trapezoid rule.
At the time when each sample of TISF was obtained, patients were examined and questioned about signs and symptoms of subcutaneous tissue toxicity including unusual soreness, tenderness, discoloration, swelling at sites of subcutaneous tumescent infiltration. […] One week after TAD patients were questioned by telephone about any signs and symptoms of subcutaneous tissue toxicity at the sites of TAD.

[7] = commercial lidocaine (1%) with epinephrine (1:100,000); cited from earlier work
[8] = test system: platelet aggregation induced by ADP, epinephrine and collagen; details: cited from earlier work
platelet function = assay: Bleeding time and bleeding area before and after tumescent lidocaine exposure (Duke method); type: in vivo, human; details: post-op tumescent lidocaine exposure
Description: The skin of the left and right thigh of a subject is cleaned and allowed to dry. […] Simultaneous 4 mm deep puncture wounds are made to the same area of the left and right thighs with disposable lancets. The puncture sites are blotted with filter paper every 30 seconds, until bleeding stops and the bleeding time for each thigh is recorded. The bleeding times of the left and right thigh are compared to determine if administration of TLAnti increases bleeding time. Normal bleeding time measured by the Duke method is 1 to 3 minutes.
In a preliminary experiment, bleeding time and bleeding area were measured in a patient before and after tumescent lidocaine exposure. […] In contrast, there was a 40% increase in Average Bleeding Area (BA). Bleeding Area (BA) was a more sensitive and a more specific test for platelet function compared to Bleeding Time (BT). […] In otherwords, TAD may reduce the risk of both post-operative surgical site infection and post-operative thromboembolism.

human neutrophils = details: cited from earlier work
[9] = adults; TLA without liposuction
[10] = Abdomen, TISF, TAD, 172 mg/L, TAD dose 600 mg
[11] = Abdomen, serum, TAD, 172 mg/L, TAD dose 600 mg

With `Nc1nc2c(ncn2COCCO)c(=O)[nH]1` [Acyclovir] the ecchymosis [1] was “no ecchymosis”, the “local tenderness upon palpation” value [1] was “no local tenderness upon palpation” and the stinging upon injection [1] was “no stinging upon injection”.
In the case of `Cc1nnc(SCC2=C(C(=O)O)N3C(=O)[C@@H](NC(=O)Cn4cnnn4)[C@H]3SC2)s1` [Cefazolin], the MIC [2] is reported as 125 µg/mL (≈ 275 µM), the “MRSA survival (MBC test)” value ([3]; 62.5 mg/L, Day 1, MRSA Inoculum 4.7 × 10^5 CFU/ml) is reported as “+” and the “MRSA survival (MBC test)” value ([3]; 62.5 mg/L, Day 2, MRSA Inoculum 4.4 × 10^5 CFU/ml) is reported as “+”. The “MRSA survival (MBC test)” value ([3]; 125 mg/L, Day 1, MRSA Inoculum 4.7 × 10^5 CFU/ml) was “+”, the “MRSA survival (MBC test)” value ([3]; 125 mg/L, Day 2, MRSA Inoculum 4.4 × 10^5 CFU/ml) was “+” and the “MRSA survival (MBC test)” value ([3]; 250 mg/L, Day 1, MRSA Inoculum 4.7 × 10^5 CFU/ml) was 0. The “MRSA survival (MBC test)” value ([3]; 250 mg/L, Day 2, MRSA Inoculum 4.4 × 10^5 CFU/ml) was 0, the “potency of Cefazolin against MRSA in the presence of Lidocaine” value [4] was “not inhibited by the presence of Lidocaine” and the “chemically stable for” value [5] was “at least 72 hours”.
For `CNC[C@H](O)c1ccc(O)c(O)c1` [Epinephrine], the “adverse local or systemic effects after subcutaneous tumescent infiltration” value (from here on “adverse local or systemic effects”) [6] was “no adverse local or systemic effects”.
In the case of `CCN(CC)CC(=O)Nc1c(C)cccc1C` [Lidocaine], the “adverse local or systemic effects” value [6] is given as “no adverse local or systemic effects”, the “dosage limitation approved by the FDA for infiltration local anesthesia” value [7] is given as 7 mg/kg and the “MRSA survival (MBC test)” value ([3]; 1,000 mg/L, Day 1, MRSA Inoculum 4.7 × 10^5 CFU/ml) is given as “+”. For the same compound, the “MRSA survival (MBC test)” value ([3]; 1,000 mg/L, Day 2, MRSA Inoculum 4.4 × 10^5 CFU/ml) was “+”, the “MRSA survival (MBC test)” value ([3]; 5,000 mg/L, Day 2, MRSA Inoculum 4.4 × 10^5 CFU/ml) was “+” and the “MRSA survival (MBC test)” value ([3]; 10,000 mg/L, Day 2, MRSA Inoculum 4.4 × 10^5 CFU/ml) was 0. For the same compound, the “lidocaine concentration that consistently inhibits in-vitro platelet aggregation” value ([8]; aggregation induced by ADP, epinephrine and collagen) was no less than 0.5 mg/mL, the “effect on platelet aggregation induced by ADP” value (from here on “effect … by ADP”) [8] was “inhibit platelet aggregation induced by ADP” and the “effect on platelet aggregation” value ([8]; safe systemic concentrations (e.g. ≤6 micrograms/ml)) was “no effect on platelet aggregation”. The “Average Bleeding Area (BA)” value (platelet function; Patient 1 (control BA = 541)) was “BA = 759”, the “Average Bleeding Time (BT)” value (platelet function; Patient 1 (control BT = 6)) was “BT = 5.75” and the “Bleeding Time BT × 2” value (platelet function; Patient 1, single tests T3, T4) was 10 and 13. For the same compound, the “reactive oxygen species (ROS) production by human neutrophils” value (human neutrophils; concentrations 100-fold higher than safe serum lidocaine concentrations (≤5 μg/ml)) was “effectively reduced reactive oxygen species (ROS) production”, the “effect on ROS” value (human neutrophils; therapeutic serum lidocaine concentrations) was “no effect on ROS” and the “maximum safe dosage (estimated)” value [9] was 30 mg/kg.
With `Cc1ncc([N+](=O)[O-])n1CCO` [Metronidazole] the “Cmax in subcutaneous TISF after TAD+IVAD relative to serum after IVAD alone” value ([6]; 600 mg as TAD (400 mg) + IVAD (200 mg) vs 600 mg IVAD alone) was 10 times, the “Cmax in TISF after TAD relative to Cmax in serum after IVAD” value ([6]; TAD 500 mg vs IVAD 500 mg) was 24.7 times and the AUC [6, 10] was 1032 µg·h/mL. It also gave a Cmax [6, 10] of 160000 ng/mL, an AUC [6, 11] of 81 µg·h/mL and a Cmax [6, 11] of 4800 ng/mL. For the same compound, the AUC ([6]; serum, IVAD, dose 600 mg) was 127 µg·h/mL, the Cmax ([6]; serum, IVAD, dose 600 mg) was 14000 ng/mL and the “adverse local or systemic effects” value [6] was “no adverse local or systemic effects”. For the same compound, the “concentration-time profiles of cefazolin and metronidazole in TISF after TAD compared” value ([6]; equal mg doses and equal mg/L concentrations in the TAD solution) was “identical”, the “initial period in which serum concentrations were greater after IVAD than after TAD; beyond it TAD greater” value ([6]; serum) was 10 h and the “chemically stable for” value [5] was “at least 72 hours”.
In the case of `CCOC(=O)c1ccc(N)cc1` [benzocaine], the “effect … by ADP” value [8] is given as “inhibit platelet aggregation induced by ADP”.
For `CCCCN1CCCCC1C(=O)Nc1c(C)cccc1C` (stereo not shown) [bupivacaine], the “effect … by ADP” value [8] is listed as “inhibit platelet aggregation induced by ADP”.
For Gentamicin, the “clinically significant adverse effects of subcutaneous injection in a dilute tumescent solution” value ([1]; conclusion) was “without any clinically significant adverse effects”, the ecchymosis [1] was “no ecchymosis” and the “local tenderness upon palpation” value [1] was “no local tenderness upon palpation”. The stinging upon injection [1] was “no stinging upon injection”.

Reference: patent US11241412B2 (priority 2015, dated 2022)
